The test system of assay [1] is HCT116 cells. Briefly: Mitochondrial respiration (Seahorse XF24). Particulars: 10 μM. It counts as cell-based, human. The procedure:
Extracellular acidification and oxygen consumption rates (ECAR and OCR) were measured in a XF24 extracellular flux analyzer (Seahorse XF24 Extra Cellular Flux Analyzer, North Billerica, MA, USA). Basic XF assay medium was prepared as previously described supplemented with glucose, and the pH adjusted to 7.4 at 37°C. Indicated final concentrations of compounds were obtained by injecting appropriate amounts of compounds dissolved in DMSO or water and diluted in XF assay medium into ports. […] Indicated data points were obtained after 3 min mixing and 2 min wait, followed by 3 min of data collection. Data were normalized to the basal values.

Assay [2] deals with HCT116 cells. The assay can be described thus: TMRE mitochondrial membrane potential assay. It counts as cell-based, human. Particulars: 10 μM, 24 h. The procedure: HCT116 cells were cultured as above with indicated inhibitors and subject to the tetramethylrhodamine ethyl ester dye method (TMRE) membrane potential assay according to the manufacturers instruction (Abcam ab113852) prior to FACS analysis.

Data on 1 substance can be found in article PMC5095062, “The novel choline kinase inhibitor ICL-CCIC-0019 reprograms cellular metabolism and inhibits cancer cell growth” (Oncotarget, 2016).

Regarding MN58B [reference compound], the “mitochondrial respiration immediately after adding inhibitor (acute effect)” value in the assay on HCT116 cells [1] is “decreased mitochondrial respiration”. Further, the “TMRE-detectable mitochondrial membrane potential” value with HCT116 cells [2] is on record as “decreased”.
